From ChEMBL document CHEMBL4219215, “Discovery of {4-[4,9-bis(ethyloxy)-1-oxo-1,3-dihydro-2H-benzo[f]isoindol-2-yl]-2-fluorophenyl}acetic acid (GSK726701A), a novel EP4 receptor partial agonist for the treatment of pain” (Bioorg Med Chem Lett, 2018)
The source made the active and inactive calls. The calls are words filed in the database; no cut-off is given here.

Key:
[1] = biological target: T1, Prostaglandin E2 receptor EP4 subtype (Homo sapiens, UniProt P35408); experiment: Partial agonist activity at human EP4 receptor expressed in HEK293-AEQ17 cells assessed as cAMP accumulation by aequorin luminescence assay; format: functional, cell-based
T1 sequence (P35408 whole entry): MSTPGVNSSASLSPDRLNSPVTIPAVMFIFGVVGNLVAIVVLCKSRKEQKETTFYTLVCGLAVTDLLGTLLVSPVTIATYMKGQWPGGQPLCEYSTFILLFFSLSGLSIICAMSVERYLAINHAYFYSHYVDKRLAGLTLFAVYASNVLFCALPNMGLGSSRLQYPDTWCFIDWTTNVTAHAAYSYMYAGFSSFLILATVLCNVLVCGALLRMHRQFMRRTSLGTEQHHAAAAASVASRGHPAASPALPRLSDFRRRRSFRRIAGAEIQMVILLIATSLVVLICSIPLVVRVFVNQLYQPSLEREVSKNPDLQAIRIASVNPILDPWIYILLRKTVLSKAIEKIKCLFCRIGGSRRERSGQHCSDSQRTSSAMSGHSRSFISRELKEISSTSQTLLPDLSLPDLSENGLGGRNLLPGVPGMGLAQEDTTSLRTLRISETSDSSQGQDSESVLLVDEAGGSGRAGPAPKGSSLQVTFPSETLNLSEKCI

[2] = biological target: T1, Prostaglandin E2 receptor EP4 subtype; experiment: Displacement of [3H]PGE2 from human EP4 receptor expressed in HEK 293 (EBNA) cell membranes incubated for 60 mins by scintillation counting method
[3] = tested on: Rattus norvegicus; experiment: Analgesic activity in rat model of Freund's complete adjuvant-induced acute inflammatory pain assessed as reversal of FCA-induced hypersensitivity at 3 mg/kg, po relative to untreated control; format: functional
[4] = Half life in rat at 1 mg/kg, po; format: ADME, organism-based; conditions: in vivo
[5] = tested on: Rattus norvegicus; experiment: Analgesic activity in rat model of Freund's complete adjuvant-induced acute inflammatory pain assessed as reversal of FCA-induced hypersensitivity at 10 mg/kg, po relative to untreated control; format: functional
[6] = tested on: Rattus norvegicus; experiment: Volume of distribution at steady state in rat at 1 mg/kg, […]; format: ADME, organism-based; conditions: in vivo
[7] = Total drug level in blood of orally dosed rat model of Freund's complete adjuvant-induced acute inflammatory pain assessed as reduction in reversal of hypersensitivity; format: ADME, organism-based; conditions: in vivo, po, read-out: Drug uptake
[8] = tested on: Rattus norvegicus; experiment: Analgesic activity in rat model of Freund's complete adjuvant-induced acute inflammatory pain assessed as reversal of FCA-induced hypersensitivity at 10 mg/kg, po pre-challenged with 3 mg/kg, po selective EP4 antagonist GW627368X; format: functional, organism-based
[9] = Blood clearance in rat at 1 mg/kg, po; format: ADME, organism-based
[10] = tested on: Rattus norvegicus; experiment: Analgesic activity in orally dosed rat model of Freund's complete adjuvant-induced acute inflammatory pain assessed as reversal of FCA-induced hypersensitivity; format: functional; conditions: po
[11] = tested on: Rattus norvegicus; experiment: Analgesic activity in rat model of chronic joint pain assessed as reversal of pain by measuring weight bearing level at 30 mg/kg, po dosed twice daily for 5 days relative to untreated control; conditions: 120 h, read-out: INH
[12] = tested on: Rattus norvegicus; experiment: Analgesic activity in rat model of chronic constriction injury-induced neuropathic pain assessed as reversal of mechanical allodynia at 30 mg/kg dosed twice daily for 8 days relative to untreated control; format: functional; conditions: 192 h
[13] = biological target: Cytochrome P450 2C19 (Homo sapiens, UniProt P33261); experiment: Inhibition of human recombinant CYP2C19; format: ADME
Cytochrome P450 2C19, sequence (P33261 whole entry): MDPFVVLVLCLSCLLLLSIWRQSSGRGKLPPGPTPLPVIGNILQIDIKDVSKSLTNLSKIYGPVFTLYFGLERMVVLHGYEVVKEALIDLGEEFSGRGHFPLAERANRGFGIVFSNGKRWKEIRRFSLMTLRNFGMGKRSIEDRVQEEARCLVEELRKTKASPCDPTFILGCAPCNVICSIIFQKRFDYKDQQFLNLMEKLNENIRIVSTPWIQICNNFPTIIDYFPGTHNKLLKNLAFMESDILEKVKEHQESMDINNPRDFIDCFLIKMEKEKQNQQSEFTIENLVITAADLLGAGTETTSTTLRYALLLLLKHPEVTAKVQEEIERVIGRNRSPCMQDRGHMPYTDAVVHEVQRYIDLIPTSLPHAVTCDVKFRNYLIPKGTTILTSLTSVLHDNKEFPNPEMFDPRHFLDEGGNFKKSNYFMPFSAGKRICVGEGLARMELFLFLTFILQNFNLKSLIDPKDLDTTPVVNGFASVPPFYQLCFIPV

[14] = biological target: T2, Cytochrome P450 3A4 (Homo sapiens, UniProt P08684); experiment: Inhibition of human recombinant CYP3A4 using 7BQ substrate; format: ADME
T2 sequence (P08684 whole entry): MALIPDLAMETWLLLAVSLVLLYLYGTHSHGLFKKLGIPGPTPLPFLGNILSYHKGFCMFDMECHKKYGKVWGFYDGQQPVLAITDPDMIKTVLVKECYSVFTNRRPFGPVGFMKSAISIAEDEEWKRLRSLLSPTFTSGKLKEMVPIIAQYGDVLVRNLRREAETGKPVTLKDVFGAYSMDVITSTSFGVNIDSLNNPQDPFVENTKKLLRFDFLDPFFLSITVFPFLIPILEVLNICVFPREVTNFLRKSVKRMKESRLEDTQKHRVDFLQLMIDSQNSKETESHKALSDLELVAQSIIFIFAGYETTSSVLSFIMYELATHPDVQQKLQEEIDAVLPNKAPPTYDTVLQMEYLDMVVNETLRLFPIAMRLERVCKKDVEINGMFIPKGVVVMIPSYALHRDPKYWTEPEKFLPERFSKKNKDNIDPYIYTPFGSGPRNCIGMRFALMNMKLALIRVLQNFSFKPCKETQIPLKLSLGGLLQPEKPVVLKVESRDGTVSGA

[15] = Intrinsic clearance in human liver microsomes; format: ADME, microsome
[16] = Intrinsic clearance in rat liver microsomes; format: ADME, microsome
[17] = biological target: T3, Cytochrome P450 1A2 (Homo sapiens, UniProt P05177); experiment: Inhibition of human recombinant CYP1A2; format: ADME
T3 sequence (P05177 whole entry): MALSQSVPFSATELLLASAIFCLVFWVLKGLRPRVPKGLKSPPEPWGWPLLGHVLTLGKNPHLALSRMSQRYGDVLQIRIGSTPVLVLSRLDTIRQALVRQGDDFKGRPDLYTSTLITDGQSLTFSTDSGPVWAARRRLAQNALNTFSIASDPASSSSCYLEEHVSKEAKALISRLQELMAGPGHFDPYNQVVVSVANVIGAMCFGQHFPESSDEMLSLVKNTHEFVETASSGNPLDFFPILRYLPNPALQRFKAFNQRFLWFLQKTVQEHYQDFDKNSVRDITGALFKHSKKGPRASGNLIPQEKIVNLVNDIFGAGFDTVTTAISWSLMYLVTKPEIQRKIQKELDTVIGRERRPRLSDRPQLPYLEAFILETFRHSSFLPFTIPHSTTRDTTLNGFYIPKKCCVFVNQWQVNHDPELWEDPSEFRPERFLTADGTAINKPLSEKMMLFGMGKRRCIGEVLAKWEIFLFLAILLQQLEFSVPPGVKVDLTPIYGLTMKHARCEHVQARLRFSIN

[18] = biological target: T2, Cytochrome P450 3A4; experiment: Inhibition of human recombinant CYP3A4 using DEF substrate; format: ADME
[19] = biological target: Cytochrome P450 2D6 (Homo sapiens, UniProt P10635); experiment: Inhibition of human recombinant CYP2D6; format: ADME
Cytochrome P450 2D6, sequence (P10635 whole entry): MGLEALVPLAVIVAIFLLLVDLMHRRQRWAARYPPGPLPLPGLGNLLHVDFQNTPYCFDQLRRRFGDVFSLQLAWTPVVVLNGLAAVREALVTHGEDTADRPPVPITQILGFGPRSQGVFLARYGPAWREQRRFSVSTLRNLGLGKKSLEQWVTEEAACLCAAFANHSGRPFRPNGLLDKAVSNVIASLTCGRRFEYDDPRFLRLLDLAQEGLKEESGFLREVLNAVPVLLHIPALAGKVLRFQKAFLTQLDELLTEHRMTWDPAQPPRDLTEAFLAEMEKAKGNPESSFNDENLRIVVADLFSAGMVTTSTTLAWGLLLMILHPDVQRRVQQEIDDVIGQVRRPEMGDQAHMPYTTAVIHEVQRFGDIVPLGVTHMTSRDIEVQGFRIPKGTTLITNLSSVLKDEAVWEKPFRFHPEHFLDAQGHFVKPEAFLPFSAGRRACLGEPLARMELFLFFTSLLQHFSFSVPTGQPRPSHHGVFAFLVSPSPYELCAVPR

[20] = biological target: Cytochrome P450 2C9 (Homo sapiens, UniProt P11712); experiment: Inhibition of human recombinant CYP2C9; format: ADME
Cytochrome P450 2C9, sequence (P11712 whole entry): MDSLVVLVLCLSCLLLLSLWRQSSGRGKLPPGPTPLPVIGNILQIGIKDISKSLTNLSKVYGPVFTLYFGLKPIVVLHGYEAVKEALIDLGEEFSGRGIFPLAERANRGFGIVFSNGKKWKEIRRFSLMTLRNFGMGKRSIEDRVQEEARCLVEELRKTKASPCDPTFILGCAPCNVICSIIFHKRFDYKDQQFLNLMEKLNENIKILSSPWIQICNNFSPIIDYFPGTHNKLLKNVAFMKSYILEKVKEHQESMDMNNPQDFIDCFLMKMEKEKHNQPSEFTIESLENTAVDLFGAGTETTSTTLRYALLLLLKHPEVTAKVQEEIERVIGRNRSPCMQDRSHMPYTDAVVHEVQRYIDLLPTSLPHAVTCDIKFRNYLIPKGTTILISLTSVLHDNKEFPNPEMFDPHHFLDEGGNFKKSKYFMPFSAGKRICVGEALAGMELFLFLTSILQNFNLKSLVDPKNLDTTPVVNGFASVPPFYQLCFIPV

SMILES	EC50 [1]	Ki [2]	also measured
CCCCCCOc1c2c(c(OCCCCCC)c3ccccc13)C(=O)N(c1ccc(CC(=O)O)cc1)C2	> 1000 nM	> 6310 nM	
CCOc1c2c(c(OCC)c3ncccc13)C(=O)N(c1ccc(CC(=O)O)cc1)C2=O	> 1000 nM	31.6 nM	
CCOc1c2c(c(OCC)c3ccccc13)C(=O)N(c1ccc(CC(=O)O)cc1C)C2	7.94 nM		Activity [3]: 19%
CCOc1c2c(c(OCC)c3ccccc13)C(=O)N(c1ccc(CC(=O)O)c(C)c1)C2	> 1000 nM		
CCOc1c2c(c(OCC)c3ccccc13)C(=O)N(c1ccc(CC(=O)O)cc1C(F)(F)F)C2	50.1 nM		
CCCCOc1c2c(c(OCCCC)c3ccccc13)C(=O)N(c1ccc(CC(=O)O)cc1)C2	200 nM	2000 nM	
CCOc1c2c(c(OCC)c3ccccc13)C(=O)N(c1ccc(C(C)C(=O)O)cc1)C2 (stereo unspecified)	> 1000 nM	200 nM	
CCCOc1c2c(c(OCCC)c3ccccc13)C(=O)N(c1ccc(CC(=O)O)cc1)C2	126 nM	631 nM	
CCOc1c2c(c(OCC)c3cc(C)ccc13)C(=O)N(c1ccc(CC(=O)O)cc1)C2=O	20 nM	158 nM	half-life [4]: 31.7 h; Activity [5]: 76%
CCOc1c2c(c(OCC)c3ccccc13)C(=O)N(c1ccc(CC(=O)O)cc1Br)C2	5.01 nM		Activity [5]: 47%
COc1c2c(c(OC)c3ccccc13)C(=O)N(c1ccc(CC(=O)O)cc1)C2=O	200 nM		
CCOc1c2c(c(OCC)c3ccccc13)C(=O)N(c1ccc(CC(=O)O)cc1Cl)C2	5.01 nM		Activity [3]: 14%
CCOc1c2c(c(OCC)c3ccccc13)C(=O)N(c1ccc(CC(=O)O)cc1)C2	20 nM	79.4 nM	Vdss [6]: 0.3 L/kg; concentration [7]: 5 to 11 µM; Activity [8]: inactive; half-life [4]: 8.5 h; CL/F [9]: 0.6 mL/min/kg; ED50 [10]: 1.5 mg/kg
CCOc1c2c(c(OCC)c3cc(F)ccc13)C(=O)N(c1ccc(CC(=O)O)cc1)C2=O	79.4 nM		
CCOc1c2c(c(OCC)c3ccccc13)C(=O)N(c1ccc(CC(=O)O)c(Cl)c1)C2	> 1000 nM		
CC(C)Oc1c2c(c(OC(C)C)c3ccccc13)C(=O)N(c1ccc(CC(=O)O)cc1)C2	39.8 nM	398 nM	
CCOc1c2c(c(OCC)c3ccccc13)C(=O)N(c1ccc(CC(=O)O)cc1F)C2	3.98 nM		Activity [3]: 5%
CCOc1c2c(c(OCC)c3ccccc13)C(=O)N(c1ccc(CC(=O)O)cc1OC)C2	10 nM		
Cc1ccc(-c2cc(C(F)(F)F)nn2-c2ccc(S(N)(=O)=O)cc2)cc1 [CELECOXIB]			inhibition in vivo at 30 mg/kg [11]: 100%; Activity [5]: Active
NCC1(CC(=O)O)CCCCC1 [GABAPENTIN]			inhibition in vivo at 30 mg/kg [12]: 100%
CCOc1c2c(c(OCC)c3ccccc13)C(=O)N(c1ccc(CC(=O)O)cc1)C2=O	25.1 nM	158 nM	IC50 [13]: > 100000 nM; Vdss [6]: 0.28 L/kg; IC50 [14]: > 100000 nM; CLH [15]: < 0.5 mL/min/g; CLH [16]: < 0.5 mL/min/g; IC50 [17]: 65000 nM; IC50 [18]: > 100000 nM; half-life [4]: 19.9 h; CL/F [9]: 0.2 mL/min/kg; IC50 [19]: 42000 nM; IC50 [20]: > 100000 nM
CCOc1c2c(c(OCC)c3ccccc13)CN(c1ccc(CC(=O)O)cc1)C2	251 nM	631 nM	
